# Columns and labels:
# Experiment in all cases: β-arrestin based GPCR screen (PathHunter / GPCRmax), antagonist mode
# 168 GPCRs [1] = target: 168 GPCRs (Homo sapiens, UniProt O43613)
# 168 GPCRs [2] = target: 168 GPCRs (Homo sapiens, UniProt P08913); conditions: ADRA2A, Antagonist
# 168 GPCRs [3] = target: 168 GPCRs (Homo sapiens, UniProt P14416); conditions: DRD2L
# 168 GPCRs [4] = target: 168 GPCRs (Homo sapiens, UniProt P21918)
# 168 GPCRs [5] = target: 168 GPCRs (Homo sapiens, UniProt P25025)
# 168 GPCRs [6] = target: 168 GPCRs (Homo sapiens, UniProt P32238); conditions: CCKAR, Antagonist
# 168 GPCRs [7] = target: 168 GPCRs (Homo sapiens, UniProt P32241)
# 168 GPCRs [8] = target: 168 GPCRs (Homo sapiens, UniProt P32745)
# 168 GPCRs [9] = target: 168 GPCRs (Homo sapiens, UniProt P35408)
# 168 GPCRs [10] = target: 168 GPCRs (Homo sapiens, UniProt P35462)
# 168 GPCRs [11] = target: 168 GPCRs (Homo sapiens, UniProt P48145)
# 168 GPCRs [12] = target: 168 GPCRs (Homo sapiens, UniProt P50391)
# 168 GPCRs [13] = target: 168 GPCRs (Homo sapiens, UniProt P51582)
# 168 GPCRs [14] = target: 168 GPCRs (Homo sapiens, UniProt Q13324)
# 168 GPCRs [15] = target: T1, 168 GPCRs (Homo sapiens, UniProt Q5NUL3)
# T1 sequence (Q5NUL3 1-361): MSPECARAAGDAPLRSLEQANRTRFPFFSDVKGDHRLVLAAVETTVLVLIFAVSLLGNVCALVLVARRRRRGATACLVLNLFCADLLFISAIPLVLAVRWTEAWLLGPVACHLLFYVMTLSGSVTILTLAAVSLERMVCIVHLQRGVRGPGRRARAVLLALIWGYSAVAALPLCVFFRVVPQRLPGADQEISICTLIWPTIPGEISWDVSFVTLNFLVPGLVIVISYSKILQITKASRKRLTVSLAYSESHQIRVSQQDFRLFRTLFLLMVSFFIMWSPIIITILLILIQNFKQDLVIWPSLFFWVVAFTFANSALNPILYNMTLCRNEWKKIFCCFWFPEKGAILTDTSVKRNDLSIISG
# 168 GPCRs [16] = target: 168 GPCRs (Homo sapiens, UniProt Q92847); conditions: GHSR
# 168 GPCRs [17] = target: 168 GPCRs (Homo sapiens, UniProt Q969V1)
# 168 GPCRs [18] = target: 168 GPCRs (Homo sapiens, UniProt Q99500)
# 168 GPCRs [19] = target: 168 GPCRs (Homo sapiens, UniProt Q9HBW0)
# 168 GPCRs [20] = target: 168 GPCRs (Homo sapiens, UniProt Q9UKP6)
# Chain of 168 GPCRs (Homo sapiens, UniProt Q9UKP6) (Q9UKP6 whole entry): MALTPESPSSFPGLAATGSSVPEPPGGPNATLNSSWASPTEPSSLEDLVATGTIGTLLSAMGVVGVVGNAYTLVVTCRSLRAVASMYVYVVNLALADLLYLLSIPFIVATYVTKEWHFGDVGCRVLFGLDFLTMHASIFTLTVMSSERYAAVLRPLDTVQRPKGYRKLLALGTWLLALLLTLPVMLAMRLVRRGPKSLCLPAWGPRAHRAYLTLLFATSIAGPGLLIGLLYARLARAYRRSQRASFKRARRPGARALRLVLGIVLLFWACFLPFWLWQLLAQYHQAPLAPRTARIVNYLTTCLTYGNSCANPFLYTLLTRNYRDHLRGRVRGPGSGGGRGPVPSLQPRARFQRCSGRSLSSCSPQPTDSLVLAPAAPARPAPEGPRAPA
# Chain of 168 GPCRs (Homo sapiens, UniProt Q9HBW0) (Q9HBW0 whole entry): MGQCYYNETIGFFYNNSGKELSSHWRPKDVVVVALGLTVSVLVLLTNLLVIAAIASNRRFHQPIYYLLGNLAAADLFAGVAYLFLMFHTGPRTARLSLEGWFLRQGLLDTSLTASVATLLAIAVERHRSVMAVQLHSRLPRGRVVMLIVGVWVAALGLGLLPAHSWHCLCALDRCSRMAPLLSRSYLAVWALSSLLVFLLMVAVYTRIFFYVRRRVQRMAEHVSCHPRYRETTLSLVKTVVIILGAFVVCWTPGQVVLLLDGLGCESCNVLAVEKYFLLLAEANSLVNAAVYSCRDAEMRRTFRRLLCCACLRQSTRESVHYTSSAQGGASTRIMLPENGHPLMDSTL
# Chain of 168 GPCRs (Homo sapiens, UniProt Q92847) (Q92847 whole entry): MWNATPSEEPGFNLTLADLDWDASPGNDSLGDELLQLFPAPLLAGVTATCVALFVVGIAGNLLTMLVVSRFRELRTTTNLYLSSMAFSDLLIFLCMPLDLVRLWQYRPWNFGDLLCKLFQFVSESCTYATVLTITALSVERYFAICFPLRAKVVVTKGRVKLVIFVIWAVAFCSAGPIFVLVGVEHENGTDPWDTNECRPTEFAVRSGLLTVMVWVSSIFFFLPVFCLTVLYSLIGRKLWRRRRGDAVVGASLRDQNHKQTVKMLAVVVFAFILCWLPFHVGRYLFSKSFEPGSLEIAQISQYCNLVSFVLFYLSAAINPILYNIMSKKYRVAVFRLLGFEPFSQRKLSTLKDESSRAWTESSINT
# Chain of 168 GPCRs (Homo sapiens, UniProt P51582) (P51582 whole entry): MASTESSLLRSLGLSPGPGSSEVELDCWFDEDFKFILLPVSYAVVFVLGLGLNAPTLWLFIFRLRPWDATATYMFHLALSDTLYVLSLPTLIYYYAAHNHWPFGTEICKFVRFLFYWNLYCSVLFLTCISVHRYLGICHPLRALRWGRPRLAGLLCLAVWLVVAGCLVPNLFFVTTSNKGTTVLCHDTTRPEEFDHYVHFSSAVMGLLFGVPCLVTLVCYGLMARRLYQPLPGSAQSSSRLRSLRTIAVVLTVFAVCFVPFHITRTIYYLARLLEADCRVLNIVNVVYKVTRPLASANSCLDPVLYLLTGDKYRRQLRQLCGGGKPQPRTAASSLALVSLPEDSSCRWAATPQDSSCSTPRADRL
# Chain of 168 GPCRs (Homo sapiens, UniProt P35408) (P35408 whole entry): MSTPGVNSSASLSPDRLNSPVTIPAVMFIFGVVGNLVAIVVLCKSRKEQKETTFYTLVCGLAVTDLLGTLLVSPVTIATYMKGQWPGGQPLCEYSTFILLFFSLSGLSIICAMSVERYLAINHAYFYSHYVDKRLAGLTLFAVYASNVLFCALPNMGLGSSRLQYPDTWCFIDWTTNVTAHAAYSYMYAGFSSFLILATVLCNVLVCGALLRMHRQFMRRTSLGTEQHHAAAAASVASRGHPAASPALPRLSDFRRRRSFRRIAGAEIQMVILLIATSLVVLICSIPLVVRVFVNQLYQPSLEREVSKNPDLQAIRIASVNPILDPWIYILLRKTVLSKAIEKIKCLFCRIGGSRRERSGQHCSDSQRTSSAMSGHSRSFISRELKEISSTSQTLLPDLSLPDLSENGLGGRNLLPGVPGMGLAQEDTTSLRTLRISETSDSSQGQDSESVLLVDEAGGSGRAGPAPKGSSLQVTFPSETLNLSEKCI
# Chain of 168 GPCRs (Homo sapiens, UniProt P21918) (P21918 whole entry): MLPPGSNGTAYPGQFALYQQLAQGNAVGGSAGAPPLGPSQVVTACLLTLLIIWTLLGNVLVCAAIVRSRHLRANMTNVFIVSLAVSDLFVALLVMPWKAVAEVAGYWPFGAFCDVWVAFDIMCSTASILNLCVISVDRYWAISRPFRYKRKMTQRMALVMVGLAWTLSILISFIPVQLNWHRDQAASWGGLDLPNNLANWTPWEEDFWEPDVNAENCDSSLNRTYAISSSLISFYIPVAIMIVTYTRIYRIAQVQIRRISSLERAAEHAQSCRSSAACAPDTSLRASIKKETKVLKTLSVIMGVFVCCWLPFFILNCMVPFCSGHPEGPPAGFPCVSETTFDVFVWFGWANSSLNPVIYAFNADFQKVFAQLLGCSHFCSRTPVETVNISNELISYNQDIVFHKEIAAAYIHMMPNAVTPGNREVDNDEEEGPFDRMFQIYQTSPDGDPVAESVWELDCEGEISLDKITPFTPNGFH
# Chain of 168 GPCRs (Homo sapiens, UniProt P50391) (P50391 whole entry): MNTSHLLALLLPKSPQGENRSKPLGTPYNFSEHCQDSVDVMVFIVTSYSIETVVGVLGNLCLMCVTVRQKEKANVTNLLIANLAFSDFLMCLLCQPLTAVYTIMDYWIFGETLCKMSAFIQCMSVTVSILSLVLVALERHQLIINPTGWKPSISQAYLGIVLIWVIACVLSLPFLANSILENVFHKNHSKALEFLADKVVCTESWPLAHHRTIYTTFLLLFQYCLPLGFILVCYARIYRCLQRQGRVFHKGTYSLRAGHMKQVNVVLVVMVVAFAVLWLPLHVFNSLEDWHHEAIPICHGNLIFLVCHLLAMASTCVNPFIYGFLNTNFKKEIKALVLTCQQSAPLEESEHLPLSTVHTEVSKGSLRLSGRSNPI
# Chain of 168 GPCRs (Homo sapiens, UniProt P32241) (P32241 31-457): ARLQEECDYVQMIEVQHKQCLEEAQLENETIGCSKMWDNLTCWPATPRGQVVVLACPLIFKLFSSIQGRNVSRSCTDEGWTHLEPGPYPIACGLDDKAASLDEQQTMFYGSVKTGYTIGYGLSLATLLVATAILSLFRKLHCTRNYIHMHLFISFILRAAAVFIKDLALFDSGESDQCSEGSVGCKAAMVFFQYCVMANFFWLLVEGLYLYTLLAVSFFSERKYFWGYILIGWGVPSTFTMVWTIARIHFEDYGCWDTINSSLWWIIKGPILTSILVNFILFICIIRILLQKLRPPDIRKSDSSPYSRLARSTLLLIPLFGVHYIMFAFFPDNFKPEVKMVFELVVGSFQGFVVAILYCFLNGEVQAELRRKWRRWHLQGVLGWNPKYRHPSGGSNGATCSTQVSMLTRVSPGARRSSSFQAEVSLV
# Chain of 168 GPCRs (Homo sapiens, UniProt P08913) (P08913 whole entry): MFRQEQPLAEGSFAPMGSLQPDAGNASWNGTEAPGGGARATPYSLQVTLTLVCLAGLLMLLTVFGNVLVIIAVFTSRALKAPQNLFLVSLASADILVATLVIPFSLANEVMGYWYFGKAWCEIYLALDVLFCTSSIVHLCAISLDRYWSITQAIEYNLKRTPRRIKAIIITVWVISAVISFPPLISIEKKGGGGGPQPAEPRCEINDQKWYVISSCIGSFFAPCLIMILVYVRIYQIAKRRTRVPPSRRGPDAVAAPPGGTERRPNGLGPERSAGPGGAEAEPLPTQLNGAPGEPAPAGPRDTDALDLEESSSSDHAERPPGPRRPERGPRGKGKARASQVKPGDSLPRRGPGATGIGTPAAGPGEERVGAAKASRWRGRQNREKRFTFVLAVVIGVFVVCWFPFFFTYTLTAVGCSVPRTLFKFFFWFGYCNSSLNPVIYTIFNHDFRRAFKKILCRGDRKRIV
# Chain of 168 GPCRs (Homo sapiens, UniProt Q99500) (Q99500 whole entry): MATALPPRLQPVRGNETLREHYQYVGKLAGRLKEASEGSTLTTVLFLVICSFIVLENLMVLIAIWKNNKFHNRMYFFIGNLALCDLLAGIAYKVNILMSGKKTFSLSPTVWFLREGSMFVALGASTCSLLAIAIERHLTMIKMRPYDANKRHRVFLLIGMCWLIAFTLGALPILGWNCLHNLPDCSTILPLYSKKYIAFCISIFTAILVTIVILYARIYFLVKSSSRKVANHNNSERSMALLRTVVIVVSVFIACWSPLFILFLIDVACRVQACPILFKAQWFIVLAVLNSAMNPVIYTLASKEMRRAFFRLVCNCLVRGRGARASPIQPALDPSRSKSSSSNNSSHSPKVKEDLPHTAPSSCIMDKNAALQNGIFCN
# Chain of 168 GPCRs (Homo sapiens, UniProt P48145) (P48145 whole entry): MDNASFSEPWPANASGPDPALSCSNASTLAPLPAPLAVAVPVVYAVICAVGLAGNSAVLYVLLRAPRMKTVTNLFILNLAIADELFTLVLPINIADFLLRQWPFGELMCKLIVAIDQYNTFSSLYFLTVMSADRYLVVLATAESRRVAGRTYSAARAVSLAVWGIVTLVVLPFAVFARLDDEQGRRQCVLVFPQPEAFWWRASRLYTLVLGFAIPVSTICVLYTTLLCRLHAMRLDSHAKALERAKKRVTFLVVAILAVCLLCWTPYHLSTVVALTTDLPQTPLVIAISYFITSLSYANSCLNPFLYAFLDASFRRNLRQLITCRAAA
# Chain of 168 GPCRs (Homo sapiens, UniProt P35462) (P35462 whole entry): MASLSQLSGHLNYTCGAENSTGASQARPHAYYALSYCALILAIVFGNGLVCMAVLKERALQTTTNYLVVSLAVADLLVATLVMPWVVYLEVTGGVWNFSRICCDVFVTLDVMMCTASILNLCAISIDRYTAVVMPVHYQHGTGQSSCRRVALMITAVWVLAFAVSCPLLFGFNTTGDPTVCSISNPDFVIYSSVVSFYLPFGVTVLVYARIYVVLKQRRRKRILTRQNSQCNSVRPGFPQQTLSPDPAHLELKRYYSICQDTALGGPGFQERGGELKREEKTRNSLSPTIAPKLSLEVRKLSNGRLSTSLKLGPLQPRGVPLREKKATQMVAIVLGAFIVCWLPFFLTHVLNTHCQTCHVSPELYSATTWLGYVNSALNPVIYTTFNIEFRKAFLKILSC
structure (smiles),measurement,setting,value
"CNC(C)C(=O)c1ccc2c(c1)OCO2 (stereo not shown) [methylone, 3,4-methylenedioxy-N-methylcathinone]",activity at 10 µM,"168 GPCRs [1]; HCRTR1, Antagonist mode, 10 uM",1.2%
same,activity at 1 µM,"168 GPCRs [1]; HCRTR1, Antagonist, 1 uM",2.3%
same,activity at 1 µM,168 GPCRs [2]; 1 uM,-4.6%
same,activity at 10 µM,168 GPCRs [2]; 10 uM,1.9%
same,activity at 10 µM,"168 GPCRs [3]; Antagonist mode, 10 uM",0.1%
same,activity at 1 µM,"168 GPCRs [3]; Antagonist, 1 uM",1.1%
same,activity at 10 µM,"168 GPCRs [4]; DRD5, Antagonist mode, 10 uM",-2.6%
same,activity at 1 µM,"168 GPCRs [4]; DRD5, Antagonist, 1 uM",-5.9%
same,activity at 10 µM,"168 GPCRs [5]; CXCR2, Antagonist mode, 10 uM",-1%
same,activity at 1 µM,"168 GPCRs [5]; CXCR2, Antagonist, 1 uM",-7.6%
same,activity at 1 µM,168 GPCRs [6]; 1 uM,-4.3%
same,activity at 10 µM,168 GPCRs [6]; 10 uM,-3.3%
same,activity at 10 µM,"168 GPCRs [7]; VIPR1, Antagonist mode, 10 uM",5.3%
same,activity at 1 µM,"168 GPCRs [7]; VIPR1, Antagonist, 1 uM",-0.7%
same,activity at 10 µM,"168 GPCRs [8]; SSTR3, Antagonist mode, 10 uM",8%
same,activity at 1 µM,"168 GPCRs [8]; SSTR3, Antagonist, 1 uM",13.2%
same,activity at 10 µM,"168 GPCRs [9]; PTGER4, Antagonist mode, 10 uM",4.3%
same,activity at 1 µM,"168 GPCRs [9]; PTGER4, Antagonist, 1 uM",10.1%
same,activity at 10 µM,"168 GPCRs [10]; DRD3, Antagonist mode, 10 uM",-17.8%
same,activity at 1 µM,"168 GPCRs [10]; DRD3, Antagonist, 1 uM",-12%
same,activity at 10 µM,"168 GPCRs [11]; NPBWR1, Antagonist mode, 10 uM",25.1%
same,activity at 1 µM,"168 GPCRs [11]; NPBWR1, Antagonist, 1 uM",17.1%
same,activity at 10 µM,"168 GPCRs [12]; PPYR1, Antagonist mode, 10 uM",6.5%
same,activity at 1 µM,"168 GPCRs [12]; PPYR1, Antagonist, 1 uM",9.5%
same,activity at 10 µM,"168 GPCRs [13]; P2RY4, Antagonist mode, 10 uM",17.5%
same,activity at 1 µM,"168 GPCRs [13]; P2RY4, Antagonist, 1 uM",15.1%
same,activity at 10 µM,"168 GPCRs [14]; CRHR2, Antagonist mode, 10 uM",-0.3%
same,activity at 1 µM,"168 GPCRs [14]; CRHR2, Antagonist, 1 uM",-2%
same,activity at 10 µM,"168 GPCRs [15]; GPR120, Antagonist mode, 10 uM",40.3%
same,activity at 1 µM,"168 GPCRs [15]; GPR120, Antagonist, 1 uM",46.5%
same,activity at 10 µM,"168 GPCRs [16]; Antagonist mode, 10 uM",9.1%
same,activity at 1 µM,"168 GPCRs [16]; Antagonist, 1 uM",25.8%
same,activity at 10 µM,"168 GPCRs [17]; MCHR2, Antagonist mode, 10 uM",-4.5%
same,activity at 1 µM,"168 GPCRs [17]; MCHR2, Antagonist, 1 uM",2%
same,activity at 10 µM,"168 GPCRs [18]; EDG3, Antagonist mode, 10 uM",13.6%
same,activity at 1 µM,"168 GPCRs [18]; EDG3, Antagonist, 1 uM",25.8%
same,activity at 10 µM,"168 GPCRs [19]; EDG4, Antagonist mode, 10 uM",-21%
same,activity at 1 µM,"168 GPCRs [19]; EDG4, Antagonist, 1 uM",-10.2%
same,activity at 10 µM,"168 GPCRs [20]; UTR2, Antagonist mode, 10 uM",4.2%
same,activity at 1 µM,"168 GPCRs [20]; UTR2, Antagonist, 1 uM",-2.1%
